Laboratory results from US10550165B2, “Peptide for inducing regeneration of tissue and use thereof” (STEMRIM INC., priority 2011, dated 2020).

What follows are substances tested on mouse bone marrow mesenchymal stem cell line (MSC-1 cells), PDGFRα-positive (assay: Migration assay (Boyden / 48-well chemotaxis chamber) on bone marrow mesenchymal stem cell line MSC-1). Conditions: peptides produced using HEK293, concentration not stated.
Assay type: cell-based
Protocol: Cells of a mouse bone marrow mesenchymal stem cell line (MSC-1 cells, established by Tamai et al. of Osaka University (PDGFRα-positive cells in bone marrow are mobilized by high mobility group box 1 (HMGB1) to regenerate injured epithelia. (Tamai et al., Proc Natl Acad Sci USA. Apr. 4, 2011))) were detached from dishes using trypsin, and collected by centrifugation at 1200 rpm and 4° C. for 10 minutes. The resulting pellet was loosened and suspended at a cell concentration of 2.0×10^6 to 3.0×10^6 cells/ml by adding Dulbecco's Modified Eagle Medium (D-MEM) containing 10% fetal bovine serum (FBS). The recombinant protein and peptides produced in HEK293 were diluted with D-MEM containing 10% FBS. The negative control used was phosphate buffered saline (PBS). An acrylic Boyden chamber was used; cells of the mouse bone marrow mesenchymal stem cell line prepared at a cell concentration of 3×10^6 cells/ml were placed in its upper layer, while a diluted protein or peptide is added to the bottom layer. More specifically, a 28 μl aliquot of a protein or peptide solution was added to each well of the bottom plate of a 48-well chemotaxis chamber (NEURO PROBE 48WELL CHEMOTAXIS CHAMBER), and a polycarbonate membrane with 8 μm pores (Neuro Probe, Inc, Cat: 866-417-0014) was placed on the bottom plate. Then, an upper plate was placed on the membrane and screwed tightly. 50 μl of cells of the mouse bone marrow mesenchymal stem cell line after concentration adjustment were added to the upper plate wells. The chamber was placed in an incubator under 5% CO2 at 37° C. After four hours, the membrane was removed from the chamber and stained with Diff-Quik (Sysmex, Cat: 16920) to detect cells that migrated through membrane pores to the lower compartment.
The peptides listed below were custom synthesized using the solid phase method by Medical & Biological Laboratories (MBL). The peptides were synthesized based on the mouse HMGB1 sequence (SEQ ID NO: 3). Synthetic peptides described in subsequent Examples were also prepared based on the mouse HMGB1 sequence. • A synthetic peptide consisting of the amino acid sequence from positions 1 to 10 of HMGB1 (1-10); • a synthetic peptide consisting of the amino acid sequence from positions 1 to 34 of HMGB1 (1-34); • a synthetic peptide consisting of the amino acid sequence from positions 37 to 62 of HMGB1 (37-62); • a synthetic peptide consisting of the amino acid sequence from positions 27 to 62 of HMGB1 (27-62); • a synthetic peptide consisting of the amino acid sequence from positions 56 to 72 of HMGB1 (56-72); • a synthetic peptide consisting of the amino acid sequence from positions 11 to 20 of HMGB1 (11-20); • a synthetic peptide consisting of the amino acid sequence from positions 11 to 25 of HMGB1 (11-25); • a synthetic peptide consisting of the amino acid sequence from positions 11 to 30 of HMGB1 (11-30); • a synthetic peptide consisting of the amino acid sequence from positions 11 to 34 of HMGB1 (11-34); • a synthetic peptide consisting of the amino acid sequence from positions 11 to 44 of HMGB1 (11-44); • a synthetic peptide consisting of the amino acid sequence from positions 17 to 44 of HMGB1 (17-44); • a synthetic peptide consisting of the amino acid sequence from positions 1 to 25 of HMGB1 (1-25); and the whole mouse HMGB1 produced in HEK293 (1-215(HEK)) as a positive control were adjusted to 100 μg/ml and placed in the lower layer of a chemotaxis chamber to assess the migration-promoting activity on bone marrow mesenchymal stem cell line (MSC-1). Results
As positive controls, centrifuged supernatant of the skin of a one-day-old mouse (one individual) incubated in PBS at 4° C. for 12 hours, and the whole mouse HMGB1 (HMGB1(HEK_1-215)) produced in HEK293 were used. […]

| Substance | activity of promoting the migration of MSC-1 |
| --- | --- |
| 1-42: peptide comprising the amino acid sequence of positions 1 to 42, produced using HEK293 (MGKGDPKKPRGKMSSYAFFVQTCREEHKKKHPDASVNFSEFS; UniProt P63158 1-42, looked up, fragment) | showed the activity of promoting the migration of bone marrow mesenchymal stem line MSC-1 |
| 1-43: peptide comprising the amino acid sequence of positions 1 to 43, produced using HEK293 (MGKGDPKKPRGKMSSYAFFVQTCREEHKKKHPDASVNFSEFSK; UniProt P09429 1-43, looked up, fragment) | showed the activity of promoting the migration of bone marrow mesenchymal stem line MSC-1 |
| 1-45: peptide comprising the amino acid sequence of positions 1 to 45, produced using HEK293 (MGKGDPKKPRGKMSSYAFFVQTCREEHKKKHPDASVNFSEFSKKC; UniProt P63158 1-45, looked up, fragment) | showed the activity of promoting the migration of bone marrow mesenchymal stem line MSC-1 |
| 1-46: peptide comprising the amino acid sequence of positions 1 to 46, produced using HEK293 (MGKGDPKKPRGKMSSYAFFVQTCREEHKKKHPDASVNFSEFSKKCS; UniProt P63158 1-46, looked up, fragment) | showed the activity of promoting the migration of bone marrow mesenchymal stem line MSC-1 |
| 1-47: peptide comprising the amino acid sequence of positions 1 to 47, produced using HEK293 (MGKGDPKKPRGKMSSYAFFVQTCREEHKKKHPDASVNFSEFSKKCSE; UniProt P63158 1-47, looked up, fragment) | showed the activity of promoting the migration of bone marrow mesenchymal stem line MSC-1 |
| 1-48: peptide comprising the amino acid sequence of positions 1 to 48, produced using HEK293 (MGKGDPKKPRGKMSSYAFFVQTCREEHKKKHPDASVNFSEFSKKCSER; UniProt P09429 1-48, looked up, fragment) | showed the activity of promoting the migration of bone marrow mesenchymal stem line MSC-1 |
| 1-49: peptide comprising the amino acid sequence of positions 1 to 49, produced using HEK293 (MGKGDPKKPRGKMSSYAFFVQTCREEHKKKHPDASVNFSEFSKKCSERW; UniProt P09429 1-49, looked up, fragment) | showed the activity of promoting the migration of bone marrow mesenchymal stem line MSC-1 |
| 1-50: peptide comprising the amino acid sequence of positions 1 to 50, produced using HEK293 (MGKGDPKKPRGKMSSYAFFVQTCREEHKKKHPDASVNFSEFSKKCSERWK; UniProt P63158 1-50, looked up, fragment) | showed the activity of promoting the migration of bone marrow mesenchymal stem line MSC-1 |
| 1-51: peptide comprising the amino acid sequence of positions 1 to 51, produced using HEK293 (MGKGDPKKPRGKMSSYAFFVQTCREEHKKKHPDASVNFSEFSKKCSERWKT; UniProt P09429 1-51, looked up, fragment) | showed the activity of promoting the migration of bone marrow mesenchymal stem line MSC-1 |
| 1-52: peptide comprising the amino acid sequence of positions 1 to 52, produced using HEK293 (MGKGDPKKPRGKMSSYAFFVQTCREEHKKKHPDASVNFSEFSKKCSERWKTM; UniProt P09429 1-52, looked up, fragment) | showed the activity of promoting the migration of bone marrow mesenchymal stem line MSC-1 |

Same assay, conditions: synthetic peptides, 5 μM, FIGS. 8A and 8B

| Substance | migration-promoting activity |
| --- | --- |
| (10-25): synthetic peptide consisting of the amino acid sequence from positions 10 to 25 of HMGB1 (RGKMSSYAFFVQTCRE; UniProt P09429 10-25, looked up, fragment) | strong migration-promoting activity |
| (11-25): synthetic peptide consisting of the amino acid sequence from positions 11 to 25 of HMGB1 (GKMSSYAFFVQTCRE; UniProt P09429 11-25, looked up, fragment) | weak activity |
| (11-27): synthetic peptide consisting of the amino acid sequence from positions 11 to 27 of HMGB1 (GKMSSYAFFVQTCREEH; UniProt P09429 11-27, looked up, fragment) | strong migration-promoting activity |
| (11-28): synthetic peptide consisting of the amino acid sequence from positions 11 to 28 of HMGB1 (GKMSSYAFFVQTCREEHK; UniProt P09429 11-28, looked up, fragment) | strong migration-promoting activity |
| (11-29): synthetic peptide consisting of the amino acid sequence from positions 11 to 29 of HMGB1 (GKMSSYAFFVQTCREEHKK; UniProt P09429 11-29, looked up, fragment) | strong migration-promoting activity |
| (12-25): synthetic peptide consisting of the amino acid sequence from positions 12 to 25 of HMGB1 (KMSSYAFFVQTCRE; UniProt P09429 12-25, looked up, fragment) | weak activity |
| (12-30): synthetic peptide consisting of the amino acid sequence from positions 12 to 30 of HMGB1 (KMSSYAFFVQTCREEHKKK; UniProt P09429 12-30, looked up, fragment) | strong migration-promoting activity |

Same assay, conditions: synthetic peptides, 100 μg/ml, positive control 1-215(HEK), FIG. 7

| Substance | migration-promoting activity |
| --- | --- |
| (1-25): synthetic peptide consisting of the amino acid sequence from positions 1 to 25 of HMGB1 (MGKGDPKKPRGKMSSYAFFVQTCRE; UniProt P09429 1-25, looked up, fragment) | found to have the activity |
| (11-25): synthetic peptide consisting of the amino acid sequence from positions 11 to 25 of HMGB1 (GKMSSYAFFVQTCRE; UniProt P09429 11-25, looked up, fragment) | found to have the activity |
| (11-30): synthetic peptide consisting of the amino acid sequence from positions 11 to 30 of HMGB1 (GKMSSYAFFVQTCREEHKKK; UniProt P09429 11-30, looked up, fragment) | activity comparable to or higher than that of the positive control |
| (11-34): synthetic peptide consisting of the amino acid sequence from positions 11 to 34 of HMGB1 (GKMSSYAFFVQTCREEHKKKHPDA; UniProt P09429 11-34, looked up, fragment) | activity comparable to or higher than that of the positive control |
| (11-44): synthetic peptide consisting of the amino acid sequence from positions 11 to 44 of HMGB1 (GKMSSYAFFVQTCREEHKKKHPDASVNFSEFSKK; UniProt P09429 11-44, looked up, fragment) | activity comparable to or higher than that of the positive control |
